The test system of assay [1] is T-47D. Put plainly: Caspase cascade activation assay (Ac-DEVD-R110 fluorogenic substrate). The class given is cell-based, Human. The settings on record: T-47D (24 hr); for EC50: Homo sapiens, T47D, read-out: Caspase potency EC50; for Caspase activity (Ratio): ratio of net RFU of test compound to control. The method, then:
Human breast cancer cell lines T-47D and DLD-1 were grown according to media component mixtures designated by American Type Culture Collection+10% FCS (Invitrogen Corporation), in a 5% CO2-95% humidity incubator at 37° C. T-47D and DLD-1 cells were maintained at a cell density between 50 and 80% confluency at a cell density of 0.1 to 0.6×10^6 cells/mL. Cells were harvested at 600×g and resuspended at 0.65×10^6 cells/mL into appropriate media+10% FCS. An aliquot of 22.5 μL of cells was added to a well of a 384-well microtiter plate containing 2.5 μL of a 10% DMSO in RPMI-1640 media solution containing 0.16 to 100 μM of benzo[d][1,2,3]triazin-4-yl-(4-methoxyphenyl)-methyl-amine or other test compound (0.016 to 10 μM final). An aliquot of 22.5 μL of cells was added to a well of a 384-well microtiter plate containing 2.5 μL of a 10% DMSO in RPMI-1640 media solution without test compound as the control sample. […] After incubation, the samples were removed from the incubator and 25 μL of a solution containing 14 μM of N—(Ac-DEVD)-N′-ethoxycarbonyl-R110 fluorogenic substrate (Cytovia, Inc.; WO99/18856), 20% sucrose (Sigma), 20 mM DTT (Sigma), 200 mM NaCl (Sigma), 40 mM Na PIPES buffer pH 7.2 (Sigma), and 500 μg/mL lysolecithin (Calbiochem) was added. The samples were mixed by agitation and incubated at room temperature. Using a fluorescent plate reader (Model SPECTRAfluor Plus, Tecan), an initial reading (T=0) was made approximately 1-2 min after addition of the substrate solution, employing excitation at 485 nm and emission at 530 nm, to determine the background fluorescence of the control sample. After the 3 h incubation, the samples were read for fluorescence as above (T=3 h).
The Relative Fluorescence Unit values (RFU) were used to calculate the sample readings as follows: RFU(T=3h)−Control RFU(T=0)=Net RFU(T=3h)
The activity of caspase cascade activation was determined by the ratio of the net RFU value for benzo[d][1,2,3]triazin-4-yl-(4-methoxy-phenyl)-methyl-amine or other test compounds to that of control samples. The EC50 (nM) was determined by a sigmoidal dose-response calculation (Prism 3.0, GraphPad Software Inc.).

Assay [2] concerns HT29. Put plainly: Inhibition of cell proliferation (GI50, CellTiter-Glo). The class given is cell-based. The settings on record: Homo sapiens, HT-29; HT29 cells, 48 h. On the procedure: (§1) T-47D, HT29, H1299, MX-1 and MDAMB435 cells were grown and harvested as in Example 29. An aliquot of […] of cells (4.4×10^4 cells/mL) was added to a well of a 96-well microtiter plate containing 5 μL of a 10% DMSO in RPMI-1640 media solution containing 10 nM to 100 μM of benzo[d][1,2,3]triazin-4-yl-(4-methoxy-phenyl)methyl-amine (1 nM to 10 μM final). An aliquot of 45 μL of cells was added to a well of a 96-well microtiter plate containing 5 μL of a 10% DMSO in RPMI-1640 media solution without compound as the control sample for maximal cell proliferation (LMax). The samples were mixed by agitation and then incubated at 37° C. for 48 h in a 5% CO2-95% humidity incubator. After incubation, the samples were removed from the incubator and 25 μL of CellTiter-Glo™ reagent (Promega) was added. The samples were mixed by agitation and incubated at room temperature for 10-15 min. Plates were then read using a luminescent plate reader (Model SPECTRAfluor Plus, Tecan) to give Ltest values.
(§2) Baseline for GI50 (dose for 50% inhibition of cell proliferation) of initial cell numbers was determined by adding an aliquot of 45 μL of cells or 45 μL of media, respectively, to wells of a 96-well microtiter plate containing 5 μL of a 10% DMSO in RPMI-1640 media solution. The samples were mixed by agitation and then incubated at 37° C. for 0.5 h in a 5% CO2-95% humidity incubator. After incubation, the samples were removed from the incubator and 25 μL of CellTiter-Glo™ reagent (Promega) was added. The samples were mixed by agitation and incubated at 37° C. for 10-15 min at room temperature in a 5% CO2-95% humidity incubator. Fluorescence was read as above, (Lstart) defining luminescence for initial cell number used as baseline in GI50 determinations.
(§3) GI50 (dose for 50% inhibition of cell proliferation) is the concentration where [(LTest−Lstart)/(LMax−Lstart)]=0.5.

The test system of assay [3] is MDAMB435. The description is as above. Particulars: Homo sapiens, MDA-MB-435; MDAMB435 cells, 48 h. It is filed as cell-based. On the procedure: as §1, §2, §3
The test system of assay [4] is H1299. Described as above. It is filed as cell-based. Particulars: Homo sapiens, NCI-H1299; H1299 cells, 48 h. On the procedure: as §1, §2, §3
The test system of assay [5] is T-47D. The assay is described as above. It is filed as cell-based. The settings on record: Homo sapiens, T47D; T-47D cells, 48 h. The method, then: as §1, §2, §3
Assay [6] relates to MX-1. The assay is described as above. Particulars: Homo sapiens, MX1; MX-1 cells, 48 h. The class given is cell-based. The method, then: as §1, §2, §3

On to `COc1ccc(N(C)c2nnnc3ccccc23)cc1` [Example 1, Benzo[d][1,2,3]triazin-4-yl-(4-methoxy-phenyl)-methyl-amine], for which, in assay [1], the EC50 was determined as 16 nM. The “Caspase activity (Ratio)” value in assay [1] amounted to 9.3. Moreover, the GI50 in assay [2] amounted to 50 nM; in assay [3] it was 7 nM; in assay [4], 40 nM; in assay [5] it was 50 nM; in assay [6] it was 50 nM.

With `COc1ccc(N(C)c2nncc3ccccc23)cc1` [Example 2, (4-Methoxy-phenyl)-methyl-phthalazin-1-yl-amine], the 50% effective concentration (EC50) in assay [1] is 106 nM. In assay [1], the “Caspase activity (Ratio)” value stood at 11.1. Besides, the GI50 came to 200 nM in assay [2]; 62 nM in assay [3]; 106 nM in assay [4]; 120 nM in assay [5]; 52 nM in assay [6].

Broadly, the EC50 is the concentration giving half of the maximal effect. The GI50 is the concentration giving 50% growth inhibition. A higher GI50 goes with less potent growth inhibition.

The values are drawn from patent publication US7842805B2, “Pharmaceutical compounds as activators of caspases and inducers of apoptosis and the use thereof” (Myrexis, Inc., priority 2005, dated 2010).
